# In patent US5880134A, “Method for using ergoline compounds to effect physiological and pathological functions at the 5-HT7 receptor” (Eli Lilly and Company, priority 1997, dated 1999):
# Columns and labels:
# rat 5-HT7 receptor = details: cited from earlier work; for pharmacological profile (rank order of affinity): rat 5-HT7, [125I]LSD and [3H]5-HT
# [1] = test system: contractile 5-HT receptor in the canine coronary artery; test: Contraction of endothelium-denuded canine coronary artery under basal tone; assay type: cell-based
# Procedure: (§1) Hearts were obtained from mongrel dogs anesthetized with sodium pentobarbital (30 mg/kg, i.v.) and placed in oxygenated modified Krebs' solution of the following composition (millimolar): NaCl, 118; KCl, 4.6; CaCl2, 1.6; KH2 PO4, 1.2; MgSO4 1.2, glucose, 10; NaHCO3 24.8 (pH 7.4). The left anterior descending and circumflex coronary arteries were dissected from the hearts, cleaned of fat and adhering tissue and cut into rings (approximately 2-3 mm outer diameter and 4-5 mm in length). The intimal surface of the rings was gently rubbed with a pair of forceps to remove the endothelium. Tissues were then mounted between two stainless steel hooks and placed in 10 ml organ chambers constantly exposed to oxygenated modified Krebs' solution (95% O2 /5% CO2; pH 7.4; 37° C.). Tissues were equilibrated for 1 hour under an initial optimal passive force of 4 g determined previously from length-tension experiments. The buffer was replaced every 15 minutes during equilibration. Isometric force was measured with Statham UC3 force transducers connected to a Beckman dynograph (R611). After 1 hr equilibration, tissues were depolarized twice with 50 mM KCl for 30 min with a 20 min washing period between. The integrity of the endothelium was examined with acetylcholine (1 μM), bradykinin (100 nM), or the ionophore A23187 (1 μM). Rings that relaxed to these agents were not used in this study.
# Tissues prepared as described in Example 1 were precontracted with PGF2α (10 μM) which produced a tonic contraction that remained at or above 92.8±2.1% (n=14) of the original maximum force throughout the experiment. Cumulative concentration-response curves to 5-HT were generated in tissues incubated with either vehicle or antagonist for 1 hr. In some experiments contraction was measured in tissues under basal tone upon the cumulative addition of 5-HT. These tissues were treated with prazosin (1 μM) to block any potential a adrenoceptor activation and in the absence or presence of antagonist.
# (§2) All results are expressed as mean ±S.E. where "n" represents the number of rings examined. No more than two rings were used from each animal for each compound studied. The relaxation data is expressed as percent relaxation of the contraction produced by PGF2α. The contraction data is expressed as percent of a maximal KCl (50 mM) contraction. The EC50 was the concentration of the agonist producing half-maximal response and was determined by least squares linear regression analysis of the linear portion or the agonist concentration-response curve and expressed as -log C50 (pEC50)
# [2] = target: T1, 5-HT7 receptor in the dog coronary artery (Canis lupus familiaris, UniProt A0A8I3S709); test: 5-HT-induced relaxation of endothelium-denuded canine coronary artery rings precontracted with PGF2α (Schild / dissociation constant analysis); assay type: cell-based; details: for relaxant activity in canine coronary artery: agonist; for slope of the Schild regression: Schild plot; for slope: Table 2, Schild regression; for blockade of 5-HT-induced relaxation: compounds III and V 1 μM, compound IV 10-100 nM, 1 hr incubation; for pEC50 values between vehicle and compound-treated tissues: 1 μM, p<0.05, Student's t-test
# T1 construct: The left anterior descending and circumflex coronary arteries were dissected from the hearts; from tissue; host or cells: dog left anterior descending and circumflex coronary artery rings (mongrel dogs), endothelium removed
# T1 sequence (A0A8I3S709 1-435): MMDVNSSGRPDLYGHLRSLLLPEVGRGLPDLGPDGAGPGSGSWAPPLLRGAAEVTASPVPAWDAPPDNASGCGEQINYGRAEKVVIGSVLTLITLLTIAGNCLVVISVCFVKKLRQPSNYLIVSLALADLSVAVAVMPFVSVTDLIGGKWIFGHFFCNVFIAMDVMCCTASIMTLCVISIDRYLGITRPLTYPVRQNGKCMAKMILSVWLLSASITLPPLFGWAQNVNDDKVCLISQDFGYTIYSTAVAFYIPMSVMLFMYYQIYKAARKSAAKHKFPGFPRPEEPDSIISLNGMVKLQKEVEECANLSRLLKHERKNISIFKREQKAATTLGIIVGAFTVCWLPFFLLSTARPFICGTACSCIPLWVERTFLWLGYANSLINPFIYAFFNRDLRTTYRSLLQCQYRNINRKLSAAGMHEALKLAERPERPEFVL
# Procedure: as §1
# Cumulative concentration-response curves to 5-HT were generated in tissues incubated with either vehicle or antagonist for 1 hr. In some experiments contraction was measured in tissues under basal tone upon the cumulative addition of 5-HT. These tissues were treated with prazosin (1 μM) to block any potential a adrenoceptor activation and in the absence or presence of antagonist.
# as §2
# Apparent antagonist dissociation constants (KB) were determined for each antagonist according to the following equation: [formula] where (B) is the concentration of the antagonist and dose ratio is the EC50 of the agonist in the presence of the antagonist divided by the EC50 of the agonist in vehicle treated tissues. […] Significant differences between vehicle and antagonist treated tissues were determined with Student's t-test. The alpha value was set a priori at 0.05.
# The data was also analyzed in accord with the procedure of Arunlakshana and Schild (1959). The dose ratio was determined at various concentrations of antagonist compound II or compound IV. If blockade is competitive under equilibrium conditions a plot of the logarithm (dose ratio--1) against the negative logarithm of the molar concentration of antagonist should yield a straight line whose slope is not different from unity and whose intercept on the abscissa is the pA2, which is generally considered to be equivalent to -log KB.
# human 5-HT7 receptor [3] = target: T2, human 5-HT7 receptor (Homo sapiens, UniProt P34969); details: cited from earlier work; for pharmacological profile (rank order of affinity): human 5-HT7, [3H]5-HT competition
# T2 sequence (P34969 1-445 isoform P34969-2): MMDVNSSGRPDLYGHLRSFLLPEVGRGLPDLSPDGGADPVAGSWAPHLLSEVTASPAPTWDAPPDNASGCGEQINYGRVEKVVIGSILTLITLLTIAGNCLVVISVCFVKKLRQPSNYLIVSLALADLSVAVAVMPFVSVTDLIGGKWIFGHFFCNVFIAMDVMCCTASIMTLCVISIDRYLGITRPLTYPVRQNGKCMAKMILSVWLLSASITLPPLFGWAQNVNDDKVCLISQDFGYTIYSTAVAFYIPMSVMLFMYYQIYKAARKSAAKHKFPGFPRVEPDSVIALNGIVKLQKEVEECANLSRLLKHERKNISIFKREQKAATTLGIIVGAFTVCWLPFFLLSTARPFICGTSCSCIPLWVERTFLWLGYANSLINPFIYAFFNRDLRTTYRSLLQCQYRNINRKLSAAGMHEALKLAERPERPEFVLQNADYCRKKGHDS
# 5-HT7 receptor = details: expressed in mammalian cells; cited from earlier work
# human 5-HT7 receptor [4] = target: T2, human 5-HT7 receptor; test: Receptor binding at the human 5-HT7 receptor
# From the text: The general chemical structure for three particularly useful compounds of the invention (compounds III-V) are shown below: [drawing 3]
# The KD and --logKB value for compound II, a known 5-HT7 antagonist, and two compounds employed by the present invention, compound III and IV, are shown in Table 1.
# [5] = Bioavailability after oral administration in rats; assay type: in vivo, rat
# [6] = test system: contractile 5-HT receptor in the canine coronary artery; details: agonist alone, vessels under basal tone, as previously reported (Cushing et al.); cited from earlier work
# [7] = compared with ester compounds II and V
smiles,measurement,setting,value
"NCCc1c[nH]c2ccc(C(N)=O)cc12 [Compound 5-CT, 5-carboxamidotryptamine]",pharmacological profile (rank order of affinity),rat 5-HT7 receptor,5CT>5MeOT≥5HT>8-OH-DPAT
same,binding affinity of 5CT over serotonin,rat 5-HT7 receptor; rat 5-HT7,higher binding affinity of 5CT over serotonin
same,contraction by agonist,"[1]; agonist alone, under basal tone or precontracted",did not significantly contract coronary arteries
same,contraction by agonist in the presence of compound IV,"[1]; compound IV 1 μM, basal tone",concentration-dependently contracted canine coronary artery
same,relaxant activity in canine coronary artery,[2],potent relaxant agonist
same,affinity of canine coronary artery relaxant receptor for 5CT versus serotonin,[2],highest affinity for 5-HT7 receptors
same,affinity of canine coronary artery relaxant receptor for 5CT versus serotonin,[2]; listed as 5CT,greater affinity for 5CT than for the endogenous agonist serotonin
same,pharmacological profile (rank order of affinity),human 5-HT7 receptor [3],5CT>5 MeOT≥5HT>8-OH DPAT
same,affinity of 5CT over serotonin,human 5-HT7 receptor [3]; human 5-HT7,greater affinity of 5CT over serotonin
CC(O)C(C)OC(=O)C1CC2c3cccc4c3c(cn4C(C)C)CC2N(C)C1 (stereo not shown) [Compound II],Kb,[2],316 nM
same,Schild slope versus unity,[2]; FIG. 1 lower panel,not significantly different from unity
same,slope of the Schild regression,[2],0.92
same,slope,[2],0.92
same,maximum relaxant response to 5-HT,[2]; compound II 0.3-10 μM,did not alter the maximum relaxant response
same,blockade of 5-HT-induced relaxation,[2]; compound II 0.3-10 μM,shifted the concentration-response curve to 5-HT significantly to the right
CN1CCN(C2=Nc3ccccc3Oc3ccc(Cl)cc32)CC1 [loxapine],affinity for the 5-HT7 receptor,5-HT7 receptor,high affinity
CN1CCN(C2=Nc3cc(Cl)ccc3Nc3ccccc32)CC1 [clozapine],affinity for the 5-HT7 receptor,5-HT7 receptor,high affinity
CC(C)n1cc2c3c(cccc31)C1CC(C(=O)NC3CCCCC3)CN(C)C1C2 (stereo not shown) [Compound III],binding affinity to the human 5-HT7 receptor (in words),human 5-HT7 receptor [4],high binding affinity
same,bioavailability,[5]; [7],greater bioavailability than the ester compounds II and V
same,Kb,[2],200 nM
same,pEC50 values between vehicle and compound-treated tissues,[2],significantly different
same,blockade of 5-HT-induced relaxation,[2]; compound II 0.3-10 μM,blocked 5-HT-induced relaxation in endothelium-denuded canine coronary artery rings in a competitive manner
CN(C)CCC=C1c2ccccc2CCc2ccccc21 [amitriptyline],affinity for the 5-HT7 receptor,5-HT7 receptor,high affinity
"COc1ccc2[nH]cc(CCN)c2c1 [Compound 5-MeOT, 5-methoxytryptamine]",pharmacological profile (rank order of affinity),rat 5-HT7 receptor,5CT>5MeOT≥5HT>8-OH-DPAT
same,contractile response of agonist,[6],produced a biphasic contractile response
same,pharmacological profile (rank order of affinity),human 5-HT7 receptor [3],5CT>5 MeOT≥5HT>8-OH DPAT
CCCCC[C@H](O)/C=C/[C@@H]1[C@@H](C/C=C\CCCC(=O)O)[C@@H](O)C[C@H]1O [PGF2α],contraction retained throughout the experiment,"[2]; PGF2α 10 μM, of the original maximum force, n=14",≥ 92.8±2.1%
CC(C)n1cc2c3c(cccc31)C1CC(C(=O)NC3CCCC3O)CN(C)C1C2 (stereo not shown) [Compound IV],effect on contractile response produced by 5-HT and 5-MeOT,"[1]; 1 μM, basal tone",not affecting the contractile response
same,effect on relaxant phase of 5-HT and 5-MeOT response,"[1]; 1 μM, basal tone",significantly attenuated the relaxant phase
same,effect on sumatriptan-induced contraction,"[1]; 1 μM, basal tone, FIG. 7",did not significantly affect sumatriptan-induced contraction
same,binding affinity to the human 5-HT7 receptor (in words),human 5-HT7 receptor [4],high binding affinity
same,bioavailability,[5]; [7],greater bioavailability than the ester compounds II and V
same,Kb,[2],5.01 nM
same,slope of the Schild regression,[2],0.98
same,slope,[2],0.98
same,blockade of 5-HT-induced relaxation,[2]; compound II 0.3-10 μM,blocked 5-HT-induced relaxation in endothelium-denuded canine coronary artery rings in a competitive manner
"NCCc1c[nH]c2ccc(O)cc12 [Compound 5-HT, 5-hydroxytryptamine]",pharmacological profile (rank order of affinity),rat 5-HT7 receptor,5CT>5MeOT≥5HT>8-OH-DPAT
same,contractile response of agonist,[6],produced a biphasic contractile response
same,pharmacological profile (rank order of affinity),human 5-HT7 receptor [3],5CT>5 MeOT≥5HT>8-OH DPAT
"CCCN(CCC)C1CCc2cccc(O)c2C1 (stereo not shown) [8-OH DPAT, 8-hydroxy-2-(di-n-propyl-amino)-tetralin]",pharmacological profile (rank order of affinity),rat 5-HT7 receptor,5CT>5MeOT≥5HT>8-OH-DPAT
same,pharmacological profile (rank order of affinity),human 5-HT7 receptor [3],5CT>5 MeOT≥5HT>8-OH DPAT
CNS(=O)(=O)Cc1ccc2[nH]cc(CCN(C)C)c2c1 [sumatriptan],relaxant activity in canine coronary artery,[2],lacking relaxant activity
COC1CCC(OC(=O)C2CC3c4cccc5c4c(cn5C(C)C)CC3N(C)C2)CC1 (stereo not shown) [Compound V],bioavailability,[5]; compared with compound II,higher bioavailability than compound II
same,Kb,[2],398 nM
same,pEC50 values between vehicle and compound-treated tissues,[2],significantly different
same,blockade of 5-HT-induced relaxation,[2]; compound II 0.3-10 μM,blocked 5-HT-induced relaxation in an apparently competitive manner
